For 27 molecules, IC50 results are on record in US10829501B2 (BRISTOL-MYERS SQUIBB COMPANY, priority 2016, dated 2020).

Where a name gives a salt, the structure may show the parent alone. A value given as a limit tells only on which side of the number the result lay.

Chain of ROCK2 (O75116 whole entry, species assumed): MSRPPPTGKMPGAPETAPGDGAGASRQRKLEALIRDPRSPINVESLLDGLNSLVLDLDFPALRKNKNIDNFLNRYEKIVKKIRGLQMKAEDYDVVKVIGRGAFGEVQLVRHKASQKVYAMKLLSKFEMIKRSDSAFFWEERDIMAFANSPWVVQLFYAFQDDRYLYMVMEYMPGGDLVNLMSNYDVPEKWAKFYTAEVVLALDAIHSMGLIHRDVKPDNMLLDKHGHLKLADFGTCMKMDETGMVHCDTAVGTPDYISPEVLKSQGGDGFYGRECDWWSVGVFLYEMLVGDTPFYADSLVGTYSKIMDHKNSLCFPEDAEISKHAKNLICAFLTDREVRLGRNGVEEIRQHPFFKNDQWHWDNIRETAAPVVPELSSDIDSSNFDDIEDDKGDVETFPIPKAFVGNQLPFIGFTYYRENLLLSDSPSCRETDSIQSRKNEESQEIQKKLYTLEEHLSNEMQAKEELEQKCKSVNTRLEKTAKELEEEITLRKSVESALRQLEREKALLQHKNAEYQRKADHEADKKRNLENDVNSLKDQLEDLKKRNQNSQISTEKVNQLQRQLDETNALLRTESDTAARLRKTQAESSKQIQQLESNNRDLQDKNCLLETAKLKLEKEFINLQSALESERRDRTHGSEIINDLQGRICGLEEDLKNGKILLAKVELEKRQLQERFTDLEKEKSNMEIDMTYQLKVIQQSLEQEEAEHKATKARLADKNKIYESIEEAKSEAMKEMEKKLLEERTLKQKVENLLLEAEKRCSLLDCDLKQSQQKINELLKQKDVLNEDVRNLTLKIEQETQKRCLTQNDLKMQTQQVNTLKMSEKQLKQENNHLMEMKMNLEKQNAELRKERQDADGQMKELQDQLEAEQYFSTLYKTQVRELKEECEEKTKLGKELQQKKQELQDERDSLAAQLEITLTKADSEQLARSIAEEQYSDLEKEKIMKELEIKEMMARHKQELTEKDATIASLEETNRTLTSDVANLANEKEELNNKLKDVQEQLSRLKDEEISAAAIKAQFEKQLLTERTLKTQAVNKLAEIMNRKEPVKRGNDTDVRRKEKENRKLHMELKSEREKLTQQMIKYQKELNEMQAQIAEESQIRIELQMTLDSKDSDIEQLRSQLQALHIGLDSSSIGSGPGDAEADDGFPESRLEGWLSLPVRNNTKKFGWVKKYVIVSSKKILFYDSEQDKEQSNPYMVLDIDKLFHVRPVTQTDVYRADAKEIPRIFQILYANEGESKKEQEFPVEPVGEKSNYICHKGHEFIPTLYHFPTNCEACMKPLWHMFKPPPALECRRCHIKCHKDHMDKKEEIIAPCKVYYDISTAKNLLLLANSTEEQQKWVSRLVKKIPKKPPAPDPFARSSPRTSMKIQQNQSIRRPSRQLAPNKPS

The first test addresses ROCK2 (Homo sapiens, UniProt O75116). The test is described as follows: ROCK2 kinase inhibition assay (LABCHIP 3000 Reader, FITC peptide substrate).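 Further: rho kinase reaction read by separating phosphorylated from unphosphorylated peptide on chip, with inhibition of kinase activity computed per concentration across a dose-response series.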
Conditions: not given
Usually IC50 stands for the concentration that inhibits the measured activity by half. Turning to `N#Cc1cc(C(=O)N[C@H]2CC3(C2)C[C@H](Oc2ncccc2C(N)=O)C3)cc(-c2cnn(C(F)F)c2)c1` (stereo partly drawn) [Example 198, 2-(((aR)-6-(3-cyano-5-(1-(difluoromethyl)-1H-pyrazol-4-yl)benzamido)spiro[3.3]heptan-2-yl)oxy)nicotinamide], the IC50 was less than 5 nM.
Still for that read-out and setting: to `N#Cc1ccc(-c2ncc(C(=O)NC3CC4(C3)CC(Oc3ncccc3C(N)=O)C4)s2)cc1` [Example 418, N-((aR)-6-((3-carbamoylpyridin-2-yl)oxy)spiro[3.3]heptan-2-yl)-2-(4-cyanophenyl)thiazole-5-carboxamide, TFA] belongs 5 to 50 nM; to `CC(C)(O)COc1ccc2c(C(=O)NC3CC4(C3)CC(Oc3cc(-c5cccc(S(C)(=O)=O)c5)ccc3C(N)=O)C4)cnn2c1` (stereo not drawn) [Example 284, N-(6-((4-carbamoyl-3′-(methylsulfonyl)-[1,1′-biphenyl]-3-yl)oxy)spiro[3.3]heptan-2-yl)-6-(2-hydroxy-2-methylpropoxy)pyrazolo[1,5-a]pyridine-3-carboxamide], less than 5 nM.
Still for that read-out and setting: to `N#Cc1cccn2c(C(=O)N[C@H]3CC4(C3)C[C@H](Oc3ncccc3C(N)=O)C4)cnc12` (stereo partly drawn) [Example 354, N-((aR)-6-((3-carbamoylpyridin-2-yl)oxy)spiro[3.3]heptan-2-yl)-8-cyanoimidazo[1,2-a]pyridine-3-carboxamide] belongs 50 to 250 nM.
Still for that read-out and setting: the value for `CC1(C)Cc2cccc(C(=O)N[C@H]3CC4(C3)C[C@H](Oc3ncccc3C(N)=O)C4)c2O1` (stereo partly drawn) [Example 163, 2-(((aR)-6-(2,2-dimethyl-2,3-dihydrobenzofuran-7-carboxamido)spiro[3.3]heptan-2-yl)oxy) nicotinamide] was 250 to 2500 nM; that for `CC(O)c1ccn2c(C(=O)N[C@H]3CC4(C3)C[C@H](Oc3ncccc3C(N)=O)C4)cnc2c1` (stereo partly drawn) [Example 328, N-((aR)-6-((3-carbamoylpyridin-2-yl)oxy)spiro[3.3]heptan-2-yl)-7-(1-hydroxyethyl)imidazo[1,2-a]pyridine-3-carboxamide] was 50 to 250 nM; that for `COC(=O)N1CC(Oc2ccc3c(C(=O)N[C@H]4CC5(C4)C[C@H](Oc4ncccc4C(N)=O)C5)cnn3c2)C1` (stereo partly drawn) [Example 347, methyl 3-((3-(((aR)-6-((3-carbamoylpyridin-2-yl)oxy)spiro[3.3]heptan-2-yl)carbamoyl)pyrazolo[1,5-a]pyridin-6-yl)oxy)azetidine-1-carboxylate] was 5 to 50 nM.
As for `CN1CCN(CCCc2ccc(C(N)=O)c(OC3CC4(CC(NC(=O)c5cnn6cc(OCC(C)(C)O)ccc56)C4)C3)c2)CC1` (stereo not drawn) [Example 266, N-(6-(2-carbamoyl-5-(3-(4-methylpiperazin-1-yl)propyl)phenoxy)spiro[3.3]heptan-2-yl)-6-(2-hydroxy-2-methylpropoxy)pyrazolo[1,5-a]pyridine-3-carboxamide], the IC50 lay within 50 to 250 nM.
On the same count and under the same terms, to `CC(C)(O)COc1ccc2c(C(=O)NC3CC4(C3)CC(Oc3ncccc3C(N)=O)C4)cnn2c1` (stereo not drawn) [Example 6, N-(6-((3-carbamoylpyridin-2-yl)oxy)spiro[3.3]heptan-2-yl)-6-(2-hydroxy-2-methylpropoxy)pyrazolo[1,5-a]pyridine-3-carboxamide] belongs less than 5 nM; to `Cn1cc(-c2ccc3c(C(=O)NC4CC5(C4)CC(Oc4ncccc4C(N)=O)C5)nc(C(F)F)n3c2)c(C(F)(F)F)n1` [Example 438, N-((aR)-6-((3-carbamoylpyridin-2-yl)oxy)spiro[3.3]heptan-2-yl)-3-(difluoromethyl)-6-(1-methyl-3-(trifluoromethyl)-1H-pyrazol-4-yl)imidazo[1,5-a]pyridine-1-carboxamide], 5 to 50 nM; to `NC(=O)c1cccnc1O[C@H]1CC2(C[C@H](NC(=O)c3cnn4c(C5CC5)c(OCCC(F)(F)F)ccc34)C2)C1` (stereo partly drawn) [Example 107, N-((aR)-6-((3-carbamoylpyridin-2-yl)oxy)spiro[3.3]heptan-2-yl)-7-cyclopropyl-6-(3,3,3-trifluoropropoxy) pyrazolo[1,5-a]pyridine-3-carboxamide, trifluoroacetate], 5 to 50 nM.
The same measure, in the same setting: the value for `CN(C)CCCc1ccc(C(N)=O)c(OC2CC3(CC(NC(=O)c4cnn5cc(OCC(C)(C)O)ccc45)C3)C2)c1` (stereo not drawn) [Example 262, N-(6-(2-carbamoyl-5-(3-(dimethylamino)propyl)phenoxy)spiro[3.3]heptan-2-yl)-6-(2-hydroxy-2-methylpropoxy)pyrazolo[1,5-a]pyridine-3-carboxamide] was 5 to 50 nM; that for `NC(=O)c1cccnc1OC1CC2(CC(NC(=O)c3cnc(-c4ccc(S(=O)(=O)C5CC5)cc4)s3)C2)C1` [Example 417, N-((aR)-6-((3-carbainoylpyridin-2-yl)oxy)spiro[3.3]heptan-2-yl)-2-(4-(cyclopropylsulfonyl)phenyl)thiazole-5-carboxamide, TFA] was 5 to 50 nM; that for `CC(C)(O)COc1ccc2c(C(=O)NC3CC4(C3)CC(Oc3cc(CCCN5CCOCC5)ccc3C(N)=O)C4)cnn2c1` (stereo not drawn) [Example 264, N-(6-(2-carbamoyl-5-(3-morpholinopropyl)phenoxy)spiro[3.3]heptan-2-yl)-6-(2-hydroxy-2-methylpropoxy)pyrazolo[1,5-a]pyridine-3-carboxamide] was 50 to 250 nM.
Turning to `COc1cccc(-c2ccc(C(N)=O)c(OC3CC4(CC(NC(=O)c5cnn6cc(OCC(C)(C)O)ccc56)C4)C3)c2)n1` (stereo not drawn) [Example 235, N-(6-(2-carbamoyl-5-(6-methoxypyridin-2-yl)phenoxy)spiro[3.3]heptan-2-yl)-6-(2-hydroxy-2-methylpropoxy)pyrazolo[1,5-a]pyridine-3-carboxamide], the IC50 was 5 to 50 nM.
Same read-out and setting: the value for `NC(=O)c1cccnc1O[C@H]1CC2(C[C@H](NC(=O)c3ccc4[nH]c(=O)c(=O)[nH]c4c3)C2)C1` (stereo partly drawn) [Example 151, N-((aR)-6-((3-carbamoylpyridin-2-yl)oxy)spiro[3.3]heptan-2-yl)-2,3-dioxo-1,2,3,4-tetrahydroquinoxaline-6-carboxamide, trifluoroacetate] was 250 to 2500 nM; that for `CC(C)Cn1cc(-c2cc(C#N)cc(C(=O)N[C@H]3CC4(C3)C[C@H](Oc3ncccc3C(N)=O)C4)c2)cn1` (stereo partly drawn) [Example 187, 2-((aR)-6-(3-cyano-5-(1-isobutyl-1H-pyrazol-4-yl)benzamido)spiro [3.3]heptan-2-yl)oxy)nicotinamide, trifluoroacetate] was less than 5 nM.
`NC(=O)c1cccnc1O[C@H]1CC2(C[C@H](NC(=O)c3nc(-c4nc5ccccc5s4)cs3)C2)C1` (stereo partly drawn) [Example 144, 4-(benzo[d]thiazol-2-yl)-N-((aR)-6-((3-carbamoylpyridin-2-yl)oxy)spiro [3.3]heptan-2-yl)thiazole-2-carboxamide, trifluoroacetate] gave a half-maximal inhibitory concentration (IC50) of 250 to 2500 nM.
Same read-out and setting: the value for `COc1ccc(C(N)=O)c(O[C@H]2CC3(C[C@H](NC(=O)c4cnn5c(C6CC6)c(OCC(C)(C)O)ccc45)C3)C2)n1` (stereo partly drawn) [Example 167, N-((aR)-6-((3-carbamoyl-6-methoxypyridin-2-yl)oxy)spiro[3.3]heptan-2-yl)-7-cyclopropyl-6-(2-hydroxy-2-methylpropoxy)pyrazolo [1,5-a]pyridine-3-carboxamide] was less than 5 nM; that for `CC(C)(O)Cn1nc(C(=O)N[C@H]2CC3(C2)C[C@H](Oc2ncccc2C(N)=O)C3)c2ccccc21` (stereo partly drawn) [Example 102, N-((aR)-6-((3-carbamoylpyridin-2-yl)oxy)spiro[3.3]heptan-2-yl)-1-(2-hydroxy-2-methylpropyl)-1H-indazole-3-carboamide, trifluoroacetate] was 5 to 50 nM.
The same measure, in the same setting: the value for `CC(C)(O)COc1ccc2c(C(=O)NC3CC4(C3)CC(Oc3cc(CCCN5CCOCC5)ccc3C(N)=O)C4)cnn2c1C1CC1` (stereo not drawn) [Example 265, N-(6-(2-carbamoyl-5-(3-morpholinopropyl)phenoxy)spiro[3.3]heptan-2-yl)-7-cyclopropyl-6-(2-hydroxy-2-methylpropoxy)pyrazolo[1,5-a]pyridine-3-carboxamide] was 5 to 50 nM.
Same read-out and setting: the value for `CN(C)CCOc1ccc2c(C(=O)N[C@H]3CC4(C3)C[C@H](Oc3ncccc3C(N)=O)C4)cnn2c1` (stereo partly drawn) [Example 80, N-((aR)-6-((3-carbamoylpyridin-2-yl)oxy)spiro[3.3]heptan-2-yl)-6-(2-(dimethylamino)ethoxy) pyrazolo[1,5-a] pyridine-3-carboxamdie, trifluoroacetate] was 5 to 50 nM.
`CC(C)(C)c1cc(C(=O)N[C@H]2CC3(C2)C[C@H](Oc2ncccc2C(N)=O)C3)n(CC(F)F)n1` (stereo partly drawn) [Example 113, 2-((aR)-6-(3-(tert-butyl)-1-(2,2-difluoroethyl)-1H-pyrazole-5-carboxamido)spiro[3.3]heptan-2-yl)oxy) nicotinamide, trifluoroacetate] registered an IC50 of 250 to 2500 nM.

The test is the same for the next values; noted with them: read-out: ROCK2 Activity (ROCK2 IC50); 5 μM ATP, 1.5 μM peptide substrate, pH 7.5.
For `NC(=O)c1cccnc1OC1CC2(CC(NC(=O)c3nc(C(F)F)n4cc(N5CCN[C@H](CO)C5)ccc34)C2)C1` (stereo partly drawn) [Example 455, N-((aR)-6-((3-carbamoylpyridin-2-yl)oxy)spiro[3.3]heptan-2-yl)-3-(difluoromethyl)-6-((S)-3-(hydroxymethyl)piperazin-1-yl)imidazo[1,5-a]pyridine-1-carboxamide], the IC50 fell in the range of 5 to 50 nM.
The same measure, in the same setting: to `Cc1c(C(=O)NC2CC3(C2)CC(Oc2ncccc2C(N)=O)C3)cnn1-c1ccc(Cl)cc1` [Example 384, N-[(aR)2-({6-[1-(4-chlorophenyl)-5-methyl-1H-pyrazole-4-amido]spiro[3.3]heptan-2-yl}oxy)pyridine-3-carboxamid 1 trifluoroacetic acid salt] belongs 5 to 50 nM; to `NC(=O)c1cccnc1OC1CC2(CC(NC(=O)c3nc(C(F)F)n4cc(OCc5ccccc5)ccc34)C2)C1` [Example 435, 6-(benzyloxy)-N-((aR)-6-((3-carbamoylpyridin-2-yl)oxy)spiro[3.3]heptan-2-yl)-3-(difluoromethyl)imidazo[1,5-a]pyridine-1-carboxamide], less than 5 nM.
`NC(=O)c1cccnc1OC1CC2(CC(NC(=O)c3nc(C(F)(F)F)n4cc(OS(=O)(=O)C(F)(F)F)ccc34)C2)C1` [Example 432, 1-(((aR)-6-((3-carbamoylpyridin-2-yl)oxy)spiro[3.3]heptan-2-yl)carbamoyl)-3-(trifluoromethyl)imidazo[1,5-a]pyridin-6-yl Trifluoromethanesulfonate]: the 50% inhibitory concentration (IC50) was 5 to 50 nM.
